Measurements from ChEMBL document CHEMBL5674860, “Optimized Dual-Glo Assay to identify co-culture-induced drug vulnerabilities in 3D CRC models” (2024).

Tests used:
Type in all cases: functional, Homo sapiens
Parameters in all cases: dose or concentration left out as unconfirmed
Colon cancer organoid [1] = assay: Optimized Dual-Glo assay to identify co-culture induced drug vulnerabilities using donated chemical probes and chemogenomics kinase set in O06 CRC organoid and F06 CAF mono and co-culture. […] Cell viability is reported both mono and co-culture models.
Colon cancer organoid [2] = assay: Optimized Dual-Glo assay to identify co-culture induced drug vulnerabilities using donated chemical probes and chemogenomics kinase set in O14 CRC organoid and F14 CAF mono and co-culture. […] Cell viability is reported both mono and co-culture models.
Colon cancer organoid [3] = assay: Optimized Dual-Glo assay to identify co-culture induced drug vulnerabilities using donated chemical probes and chemogenomics kinase set in O20 CRC organoid and F20 CAF mono and co-culture. […] Cell viability is reported both mono and co-culture models.
[4] = Culture type Co-Culture, Transduced with Lucferase2-P2A-EGFP lentivirus
[5] = Culture type Co-Culture, Transduced with Renilla-dsRed lentivirus
[6] = Culture type Mono-Culture, Transduced with Lucferase2-P2A-EGFP lentivirus
[7] = Culture type Mono-Culture, Transduced with Renilla-dsRed lentivirus

| SMILES | Cell Viability (Colon cancer organoid [1]; [4]) [%] | Cell Viability (Colon cancer organoid [1]; [5]) [%] | Cell Viability (Colon cancer organoid [1]; [6]) [%] | Cell Viability (Colon cancer organoid [1]; [7]) [%] | Cell Viability (Colon cancer organoid [2]; [4]) [%] | Cell Viability (Colon cancer organoid [2]; [5]) [%] | Cell Viability (Colon cancer organoid [2]; [6]) [%] | Cell Viability (Colon cancer organoid [2]; [7]) [%] | Cell Viability (Colon cancer organoid [3]; [4]) [%] | Cell Viability (Colon cancer organoid [3]; [5]) [%] | Cell Viability (Colon cancer organoid [3]; [6]) [%] | Cell Viability (Colon cancer organoid [3]; [7]) [%] |
| --- | --- | --- | --- | --- | --- | --- | --- | --- | --- | --- | --- | --- |
| Cc1cc(C)cc(C(=O)NOCCCCCC(=O)NO)c1 | 13.8956 | 454.718 | 14.9602 | 431.4 | 50.8168 | 381.601 | 48.3088 | 262.893 | 15.3163 | 402.959 | 16.4949 | 194.272 |
| O=C(O)CNC(=O)c1c(O)c2ccccc2n(Cc2ccccc2)c1=O | 145.736 | 124.036 | 103.118 | 94.3602 | 94.5212 | 101.447 | 96.8462 | 89.4149 | 96.4355 | 149.859 | 78.6397 | 102.057 |
| CCn1cc(-c2cccc(C(F)(F)F)c2)c2sc(C(=N)NC3CCS(=O)(=O)CC3)cc2c1=O | 95.4713 | 165.165 | 69.4061 | 200.249 | 120.643 | 201.969 | 99.2111 | 135.353 | 60.6992 | 124.144 | 95.8372 | 109.255 |
| C[C@@H]1CC(=O)Nc2cccc(-c3ccc4c(c3)c(-c3cnn(C)c3)nn4C)c2N1 | 96.7982 | 166.358 | 47.1538 | 205.908 | 64.6948 | 192.573 | 92.2277 | 159.466 | 69.0231 | 148.573 | 48.9735 | 106.497 |
| CC(=O)c1cc(-c2cc(C(=O)NC3CC3)ccc2C)c2ncccn12 | 95.4153 | 118.795 | 58.2009 | 132.016 | 100.15 | 126.848 | 106.827 | 109.242 | 68.1057 | 121.421 | 109.894 | 113.039 |
| Cc1sc2c(c1C)C(c1ccc(Cl)cc1)=N[C@@H](CC(=O)NCCCCCCCCNC(=O)COc1cccc3c1C(=O)N(C1CCC(=O)NC1=O)C3=O)c1nnc(C)n1-2 (stereo partly drawn) | 5.4511 | 19.3995 | 5.5885 | 11.9931 | 2.938 | 15.8723 | 4.49 | 21.4216 | 2.002 | 74.9854 | 1.636 | 22.3036 |
| CN(C)CCCOc1ccc(-c2cc(NCCCn3cccn3)nc(S(C)(=O)=O)n2)cc1 | 126.468 | 129.443 | 108.628 | 116.281 | 98.5657 | 111.103 | 109.089 | 94.6282 | 144.301 | 126.832 | 110.606 | 92.2355 |
| COc1cc(N(C)c2ccnc3ccc(C(F)(F)F)cc23)cc(OC)c1OC | 161.309 | 161.036 | 102.201 | 116.943 | 114.205 | 95.5273 | 120.439 | 84.9016 | 76.7382 | 110.267 | 123.073 | 118.477 |
| CNCCN1CCC(c2cc(CN(C)C(=O)c3cccc(Oc4ccccc4)c3)ccn2)CC1 | 83.6812 | 129.007 | 98.3617 | 135.689 | 99.3221 | 120.381 | 93.8948 | 118.528 | 67.0647 | 133.473 | 86.7663 | 93.4663 |
| CCCCN(Cc1ccccc1)C(=O)c1ccc(S(=O)(=O)Nc2ccccc2)cc1 | 64.4698 | 76.2121 | 99.0346 | 112.912 | 108.863 | 102.946 | 107.066 | 103.133 | 74.981 | 116.955 | 117.076 | 107.638 |
| COc1cc(OC)cc(-c2noc(N3CCN(C)C4(CCN(c5ccnc(C)c5)CC4)C3)n2)c1 | 121.179 | 136.172 | 96.7414 | 97.7605 | 84.0267 | 119.648 | 90.6911 | 98.8129 | 136.007 | 146.282 | 103.16 | 78.5515 |
| CNc1cc(Oc2cc(C(=O)Nc3cc(N4CCN(C)CC4)cc(C(F)(F)F)c3)ccc2C)ncn1 | 72.9479 | 75.3319 | 138.287 | 104.785 | 139.066 | 110.099 | 182.817 | 99.4408 | 162.082 | 75.5289 | 115.09 | 103.127 |
| CC1=C(C)C(=O)C(C(C)(C)CC(=O)N(CCCCSC[C@H]2O[C@@H](n3cnc4c(N)ncnc43)[C@@H]3OC(C)(C)O[C@@H]32)Cc2cccc(-c3ccc(Cl)cc3)c2)=C(C)C1=O | 82.0361 | 129.013 | 89.6281 | 110.922 | 111.496 | 127.734 | 88.6013 | 108.216 | 97.2624 | 117.278 | 134.873 | 88.9157 |
| CC1=C(C)C(=O)C(C(C)(C)CC(=O)N(CCCCSC[C@H]2O[C@@H](n3cnc4c(N)ncnc43)[C@H](O)[C@@H]2O)Cc2cccc(-c3ccc(Cl)cc3)c2)=C(C)C1=O | 117.447 | 138.552 | 64.6918 | 115.82 | 78.0162 | 155.416 | 78.4613 | 102.407 | 99.381 | 114.813 | 107.414 | 99.5191 |
